Measured values published in the kinase profiling compilation of Christmann-Franck et al. (2016).

Key:
[1] = molecular target: MINK1 (human) (UniProt Q8N4C8); experiment: KINOMEscan competition binding; conditions: compound 10.0 µM
[2] = molecular target: TYK2 JH2 pseudokinase (human) (UniProt P29597); experiment: KINOMEscan competition binding; conditions: compound 10.0 µM
[3] = molecular target: IRAK3 (human) (UniProt Q9Y616); experiment: KINOMEscan competition binding; conditions: compound 10.0 µM
[4] = molecular target: MYLK4 (human) (UniProt Q86YV6); experiment: KINOMEscan competition binding; conditions: compound 10.0 µM
[5] = molecular target: STK17A (human) (UniProt Q9UEE5); experiment: KINOMEscan competition binding; conditions: compound 10.0 µM
[6] = test system: FLT3 (human), P36888 [ITD]; experiment: KINOMEscan competition binding; conditions: compound 10.0 µM
[7] = molecular target: ACVR2B (human) (UniProt Q13705); experiment: KINOMEscan competition binding; conditions: compound 10.0 µM
[8] = molecular target: BMP2K (human) (UniProt Q9NSY1); experiment: KINOMEscan competition binding; conditions: compound 10.0 µM
[9] = molecular target: DAPK2 (human) (UniProt Q9UIK4); experiment: KINOMEscan competition binding; conditions: compound 10.0 µM
[10] = molecular target: STK17B (human) (UniProt O94768); experiment: KINOMEscan competition binding; conditions: compound 10.0 µM
[11] = molecular target: CDK7 (human) (UniProt P50613); experiment: KINOMEscan competition binding; conditions: compound 10.0 µM
[12] = test system: FLT3 (human), P36888 [D835H]; experiment: KINOMEscan competition binding; conditions: compound 10.0 µM
[13] = molecular target: GSK3A (human) (UniProt P49840); experiment: KINOMEscan competition binding; conditions: compound 10.0 µM
[14] = molecular target: CLK4 (human) (UniProt Q9HAZ1); experiment: KINOMEscan competition binding; conditions: compound 10.0 µM
[15] = molecular target: RIOK2 (human) (UniProt Q9BVS4); experiment: KINOMEscan competition binding; conditions: compound 10.0 µM
[16] = molecular target: MAP4K2 (human) (UniProt Q12851); experiment: KINOMEscan competition binding; conditions: compound 10.0 µM
[17] = molecular target: PLK3 (human) (UniProt Q9H4B4); experiment: KINOMEscan competition binding; conditions: compound 10.0 µM
[18] = molecular target: TAOK1 (human) (UniProt Q7L7X3); experiment: KINOMEscan competition binding; conditions: compound 10.0 µM
[19] = molecular target: AAK1 (human) (UniProt Q2M2I8); experiment: KINOMEscan competition binding; conditions: compound 10.0 µM
[20] = molecular target: CAMKK1 (human) (UniProt Q8N5S9); experiment: KINOMEscan competition binding; conditions: compound 10.0 µM
[21] = molecular target: GAK (human) (UniProt O14976); experiment: KINOMEscan competition binding; conditions: compound 10.0 µM
[22] = molecular target: MAP2K4 (human) (UniProt P45985); experiment: KINOMEscan competition binding; conditions: compound 10.0 µM
[23] = molecular target: PIM1 (human) (UniProt P11309); experiment: KINOMEscan competition binding; conditions: compound 10.0 µM
[24] = molecular target: JAK1 JH2 pseudokinase (human) (UniProt P23458); experiment: KINOMEscan competition binding; conditions: compound 10.0 µM
[25] = molecular target: CLK2 (human) (UniProt P49760); experiment: KINOMEscan competition binding; conditions: compound 10.0 µM
[26] = molecular target: PIP5K1A (human) (UniProt Q99755); experiment: KINOMEscan competition binding; conditions: compound 10.0 µM
[27] = molecular target: CLK1 (human) (UniProt P49759); experiment: KINOMEscan competition binding; conditions: compound 10.0 µM
[28] = molecular target: SRPK3 (human) (UniProt Q9UPE1); experiment: KINOMEscan competition binding; conditions: compound 10.0 µM
[29] = molecular target: RIPK2 (human) (UniProt O43353); experiment: KINOMEscan competition binding; conditions: compound 10.0 µM
[30] = molecular target: ACVR2A (human) (UniProt P27037); experiment: KINOMEscan competition binding; conditions: compound 10.0 µM
[31] = test system: EIF2AK4 KD2 (human), Q9P2K8 [S808G]; experiment: KINOMEscan competition binding; conditions: compound 10.0 µM
[32] = molecular target: DAPK1 (human) (UniProt P53355); experiment: KINOMEscan competition binding; conditions: compound 10.0 µM
[33] = molecular target: PIM3 (human) (UniProt Q86V86); experiment: KINOMEscan competition binding; conditions: compound 10.0 µM
[34] = test system: FLT3 (human), P36888 [N841I]; experiment: KINOMEscan competition binding; conditions: compound 10.0 µM
[35] = molecular target: MYLK (human) (UniProt Q15746); experiment: KINOMEscan competition binding; conditions: compound 10.0 µM
[36] = molecular target: CSNK2A2 (human) (UniProt P19784); experiment: KINOMEscan competition binding; conditions: compound 10.0 µM
[37] = molecular target: PIP4K2B (human) (UniProt P78356); experiment: KINOMEscan competition binding; conditions: compound 10.0 µM
[38] = molecular target: PIM2 (human) (UniProt Q9P1W9); experiment: KINOMEscan competition binding; conditions: compound 10.0 µM
[39] = test system: RET (human), P07949 [V804M]; experiment: KINOMEscan competition binding; conditions: compound 10.0 µM
[40] = molecular target: MAP3K7 (human) (UniProt O43318); experiment: KINOMEscan competition binding; conditions: compound 10.0 µM
[41] = molecular target: HIPK1 (human) (UniProt Q86Z02); experiment: KINOMEscan competition binding; conditions: compound 10.0 µM
[42] = molecular target: TTK (human) (UniProt P33981); experiment: KINOMEscan competition binding; conditions: compound 10.0 µM
[43] = molecular target: TGFBR2 (human) (UniProt P37173); experiment: KINOMEscan competition binding; conditions: compound 10.0 µM
[44] = molecular target: RIOK1 (human) (UniProt Q9BRS2); experiment: KINOMEscan competition binding; conditions: compound 10.0 µM
[45] = test system: FLT3 (human), P36888 [D835Y]; experiment: KINOMEscan competition binding; conditions: compound 10.0 µM
[46] = molecular target: PIM1 (human) (UniProt P11309); experiment: SelectScreen, TR FRET
[47] = molecular target: PIM2 (human) (UniProt Q9P1W9); experiment: SelectScreen, TR FRET

PIM2 (human), sequence (Q9P1W9 whole entry, looked up): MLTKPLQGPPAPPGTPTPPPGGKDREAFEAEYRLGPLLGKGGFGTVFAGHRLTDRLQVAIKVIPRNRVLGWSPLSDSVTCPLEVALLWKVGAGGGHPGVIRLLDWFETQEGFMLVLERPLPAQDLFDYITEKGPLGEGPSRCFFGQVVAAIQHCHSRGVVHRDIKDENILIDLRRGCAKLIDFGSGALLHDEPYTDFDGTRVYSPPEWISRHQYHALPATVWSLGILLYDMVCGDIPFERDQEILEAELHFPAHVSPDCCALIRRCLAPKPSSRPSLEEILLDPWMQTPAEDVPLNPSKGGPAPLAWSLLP
PIM1 (human), sequence (P11309 whole entry, looked up): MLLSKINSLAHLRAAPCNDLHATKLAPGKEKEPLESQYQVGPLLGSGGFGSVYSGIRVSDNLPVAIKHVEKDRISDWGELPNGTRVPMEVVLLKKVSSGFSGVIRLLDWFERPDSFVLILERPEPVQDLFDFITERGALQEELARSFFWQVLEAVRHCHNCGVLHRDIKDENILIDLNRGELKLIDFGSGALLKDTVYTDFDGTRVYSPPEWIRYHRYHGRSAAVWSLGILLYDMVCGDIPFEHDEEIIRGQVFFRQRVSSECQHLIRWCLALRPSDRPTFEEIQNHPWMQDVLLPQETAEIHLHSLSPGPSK
CLK4 (human), sequence (Q9HAZ1 whole entry, looked up): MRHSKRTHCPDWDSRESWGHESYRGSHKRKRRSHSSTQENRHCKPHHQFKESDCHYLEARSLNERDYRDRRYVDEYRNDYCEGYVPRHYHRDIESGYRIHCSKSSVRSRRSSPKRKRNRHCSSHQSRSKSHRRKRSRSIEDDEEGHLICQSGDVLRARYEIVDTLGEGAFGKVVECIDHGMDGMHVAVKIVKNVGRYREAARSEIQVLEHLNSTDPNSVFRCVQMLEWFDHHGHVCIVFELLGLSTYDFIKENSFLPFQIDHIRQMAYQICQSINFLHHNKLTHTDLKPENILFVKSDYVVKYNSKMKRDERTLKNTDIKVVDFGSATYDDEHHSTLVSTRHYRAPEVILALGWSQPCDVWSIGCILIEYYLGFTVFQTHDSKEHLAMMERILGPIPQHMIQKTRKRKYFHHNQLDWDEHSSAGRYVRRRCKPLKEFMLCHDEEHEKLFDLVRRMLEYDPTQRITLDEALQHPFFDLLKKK
GSK3A (human), sequence (P49840 whole entry, looked up): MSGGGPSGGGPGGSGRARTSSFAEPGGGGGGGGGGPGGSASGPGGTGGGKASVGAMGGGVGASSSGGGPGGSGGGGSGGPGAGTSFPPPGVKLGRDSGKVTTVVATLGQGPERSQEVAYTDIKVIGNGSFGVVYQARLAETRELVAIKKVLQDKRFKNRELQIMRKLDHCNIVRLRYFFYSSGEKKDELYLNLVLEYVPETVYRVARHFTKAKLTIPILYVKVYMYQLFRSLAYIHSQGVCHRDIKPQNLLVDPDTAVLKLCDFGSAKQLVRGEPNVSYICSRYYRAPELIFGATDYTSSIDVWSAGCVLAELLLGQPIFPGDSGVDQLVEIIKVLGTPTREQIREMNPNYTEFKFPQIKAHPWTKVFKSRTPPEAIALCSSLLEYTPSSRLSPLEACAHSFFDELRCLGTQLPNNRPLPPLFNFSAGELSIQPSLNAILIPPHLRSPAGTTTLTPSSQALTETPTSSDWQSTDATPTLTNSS
STK17B (human), sequence (O94768 whole entry, looked up): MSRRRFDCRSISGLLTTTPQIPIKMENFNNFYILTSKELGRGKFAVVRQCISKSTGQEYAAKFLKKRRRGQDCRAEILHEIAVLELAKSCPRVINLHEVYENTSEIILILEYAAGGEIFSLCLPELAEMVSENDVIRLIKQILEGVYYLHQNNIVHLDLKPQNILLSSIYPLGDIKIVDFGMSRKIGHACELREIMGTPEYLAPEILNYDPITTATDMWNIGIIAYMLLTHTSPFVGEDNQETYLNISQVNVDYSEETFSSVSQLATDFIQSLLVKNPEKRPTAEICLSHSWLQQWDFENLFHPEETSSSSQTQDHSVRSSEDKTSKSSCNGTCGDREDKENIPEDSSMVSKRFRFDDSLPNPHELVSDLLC
DAPK1 (human), sequence (P53355 whole entry, looked up): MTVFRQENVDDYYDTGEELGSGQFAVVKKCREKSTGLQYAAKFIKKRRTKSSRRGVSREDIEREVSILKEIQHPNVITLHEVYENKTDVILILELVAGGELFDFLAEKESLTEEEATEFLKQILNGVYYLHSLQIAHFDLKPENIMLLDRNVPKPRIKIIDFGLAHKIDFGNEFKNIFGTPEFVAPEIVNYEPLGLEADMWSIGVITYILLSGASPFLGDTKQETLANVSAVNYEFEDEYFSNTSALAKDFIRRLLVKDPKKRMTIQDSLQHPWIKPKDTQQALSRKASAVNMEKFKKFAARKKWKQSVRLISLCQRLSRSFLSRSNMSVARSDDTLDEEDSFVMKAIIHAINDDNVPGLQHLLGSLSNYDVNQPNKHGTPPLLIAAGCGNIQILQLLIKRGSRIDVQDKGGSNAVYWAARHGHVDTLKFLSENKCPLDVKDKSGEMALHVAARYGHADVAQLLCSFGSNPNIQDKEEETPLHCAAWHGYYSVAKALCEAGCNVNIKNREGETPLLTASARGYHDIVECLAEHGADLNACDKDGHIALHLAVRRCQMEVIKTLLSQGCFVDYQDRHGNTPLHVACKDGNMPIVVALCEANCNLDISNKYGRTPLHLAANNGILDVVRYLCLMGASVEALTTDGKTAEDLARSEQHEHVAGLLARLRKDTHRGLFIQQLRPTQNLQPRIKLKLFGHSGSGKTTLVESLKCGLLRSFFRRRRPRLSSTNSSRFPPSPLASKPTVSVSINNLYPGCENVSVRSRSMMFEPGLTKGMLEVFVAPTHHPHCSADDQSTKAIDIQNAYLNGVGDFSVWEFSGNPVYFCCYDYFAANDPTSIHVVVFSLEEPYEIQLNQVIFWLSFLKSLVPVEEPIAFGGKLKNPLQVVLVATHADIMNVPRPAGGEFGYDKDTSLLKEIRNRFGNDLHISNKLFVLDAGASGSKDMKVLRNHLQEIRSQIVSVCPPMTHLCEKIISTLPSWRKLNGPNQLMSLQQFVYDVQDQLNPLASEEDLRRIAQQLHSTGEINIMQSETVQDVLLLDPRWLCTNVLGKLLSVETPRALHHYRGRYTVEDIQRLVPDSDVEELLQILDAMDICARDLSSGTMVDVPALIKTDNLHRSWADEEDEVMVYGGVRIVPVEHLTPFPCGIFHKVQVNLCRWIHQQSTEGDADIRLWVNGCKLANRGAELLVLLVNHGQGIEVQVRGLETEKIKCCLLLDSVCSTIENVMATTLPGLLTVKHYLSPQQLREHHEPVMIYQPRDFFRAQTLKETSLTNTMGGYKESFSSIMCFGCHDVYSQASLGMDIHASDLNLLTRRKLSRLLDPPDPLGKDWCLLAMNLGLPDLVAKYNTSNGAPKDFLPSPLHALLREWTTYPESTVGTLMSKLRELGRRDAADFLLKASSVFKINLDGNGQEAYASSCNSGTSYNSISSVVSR
SRPK3 (human), sequence (Q9UPE1 whole entry, looked up): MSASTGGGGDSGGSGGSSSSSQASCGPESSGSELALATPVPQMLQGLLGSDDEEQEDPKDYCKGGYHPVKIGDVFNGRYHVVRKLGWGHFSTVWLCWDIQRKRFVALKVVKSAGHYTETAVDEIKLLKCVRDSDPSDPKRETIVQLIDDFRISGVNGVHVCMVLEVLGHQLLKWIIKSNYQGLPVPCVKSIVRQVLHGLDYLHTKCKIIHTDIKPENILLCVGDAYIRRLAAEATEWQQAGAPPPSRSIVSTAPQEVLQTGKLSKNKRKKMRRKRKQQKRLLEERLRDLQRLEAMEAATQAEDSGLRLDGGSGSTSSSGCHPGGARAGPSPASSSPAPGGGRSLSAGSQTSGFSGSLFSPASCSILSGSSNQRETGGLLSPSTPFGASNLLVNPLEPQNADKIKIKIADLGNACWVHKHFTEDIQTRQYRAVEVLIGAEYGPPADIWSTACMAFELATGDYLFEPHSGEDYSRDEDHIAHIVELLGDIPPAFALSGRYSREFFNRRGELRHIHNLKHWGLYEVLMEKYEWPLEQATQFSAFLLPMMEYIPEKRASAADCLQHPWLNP
AAK1 (human), sequence (Q2M2I8 whole entry, looked up): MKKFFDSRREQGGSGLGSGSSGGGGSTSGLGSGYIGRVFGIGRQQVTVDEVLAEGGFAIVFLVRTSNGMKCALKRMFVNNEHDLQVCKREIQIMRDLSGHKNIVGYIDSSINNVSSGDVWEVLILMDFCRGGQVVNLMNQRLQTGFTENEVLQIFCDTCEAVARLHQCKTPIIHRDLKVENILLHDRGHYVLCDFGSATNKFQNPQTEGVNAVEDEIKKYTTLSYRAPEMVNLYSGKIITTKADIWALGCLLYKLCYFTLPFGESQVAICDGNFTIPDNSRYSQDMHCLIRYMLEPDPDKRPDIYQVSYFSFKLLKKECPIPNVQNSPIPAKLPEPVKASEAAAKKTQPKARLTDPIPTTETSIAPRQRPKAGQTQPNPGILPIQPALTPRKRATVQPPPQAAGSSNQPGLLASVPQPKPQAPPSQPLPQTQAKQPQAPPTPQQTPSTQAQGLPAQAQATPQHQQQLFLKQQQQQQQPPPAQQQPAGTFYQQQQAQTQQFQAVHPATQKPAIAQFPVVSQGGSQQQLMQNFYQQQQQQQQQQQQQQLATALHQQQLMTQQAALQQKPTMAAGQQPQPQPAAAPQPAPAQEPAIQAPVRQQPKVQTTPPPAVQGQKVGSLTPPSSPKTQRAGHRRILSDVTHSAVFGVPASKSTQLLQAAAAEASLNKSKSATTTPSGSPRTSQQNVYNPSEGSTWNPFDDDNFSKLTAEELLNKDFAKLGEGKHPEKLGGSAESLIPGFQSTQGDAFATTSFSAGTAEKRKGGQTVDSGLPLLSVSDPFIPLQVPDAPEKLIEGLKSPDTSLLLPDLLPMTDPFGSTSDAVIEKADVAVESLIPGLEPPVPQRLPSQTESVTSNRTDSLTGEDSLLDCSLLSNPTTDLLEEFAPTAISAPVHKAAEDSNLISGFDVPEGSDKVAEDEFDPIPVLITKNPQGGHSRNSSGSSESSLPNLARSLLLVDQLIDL

N=C1NC(=O)/C(=C/c2ccc(-c3cnc4ccccc4c3)o2)S1
kinase still bound, per cent of control [1]: 16%
kinase still bound, per cent of control [2]: 1.1%
kinase still bound, per cent of control [3]: 24%
kinase still bound, per cent of control [4]: 13%
kinase still bound, per cent of control [5]: 0.55%
kinase still bound, per cent of control [6]: 22%
kinase still bound, per cent of control [7]: 21%
kinase still bound, per cent of control [8]: 8%
kinase still bound, per cent of control [9]: 30%
kinase still bound, per cent of control [10]: 2.3%
kinase still bound, per cent of control [11]: 5.8%
kinase still bound, per cent of control [12]: 18%
kinase still bound, per cent of control [13]: 17%
kinase still bound, per cent of control [14]: 20%
kinase still bound, per cent of control [15]: 9.2%
kinase still bound, per cent of control [16]: 20%
kinase still bound, per cent of control [17]: 29%
kinase still bound, per cent of control [18]: 34%
kinase still bound, per cent of control [19]: 6.3%
kinase still bound, per cent of control [20]: 27%
kinase still bound, per cent of control [21]: 2.6%
kinase still bound, per cent of control [22]: 33%
kinase still bound, per cent of control [23]: 8.3%
kinase still bound, per cent of control [24]: 20%
kinase still bound, per cent of control [25]: 9.8%
kinase still bound, per cent of control [26]: 19%
kinase still bound, per cent of control [27]: 15%
kinase still bound, per cent of control [28]: 22%
kinase still bound, per cent of control [29]: 25%
kinase still bound, per cent of control [30]: 34%
kinase still bound, per cent of control [31]: 26%
kinase still bound, per cent of control [32]: 22%
kinase still bound, per cent of control [33]: 3.2%
kinase still bound, per cent of control [34]: 29%
kinase still bound, per cent of control [35]: 24%
kinase still bound, per cent of control [36]: 5.5%
kinase still bound, per cent of control [37]: 20%
kinase still bound, per cent of control [38]: 1.4%
kinase still bound, per cent of control [39]: 10%
kinase still bound, per cent of control [40]: 12%
kinase still bound, per cent of control [41]: 0.1%
kinase still bound, per cent of control [42]: 25%
kinase still bound, per cent of control [43]: 9.2%
kinase still bound, per cent of control [44]: 15%
kinase still bound, per cent of control [45]: 8.4%
IC50 [46]: > 1110 nM
IC50 [47]: 504 nM
